What was measured:
Assay in all cases: Bliss excess, mean over the matrix (fraction); higher = more synergy
[1] = system: RPMI-8402 (T-Lymphoblastic Leukemia)
Procedure, shortened: (§1)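 Bliss excess equals the observed combination effect minus the expected value EA + EB − EA·EB, where EA and EB are the effects of each agent alone. Combination Emax is the second-highest inhibition within the matrix. Inhibition was scaled from CellTiter-Glo 2.0 luminescence, with 0 set by vehicle wells and 1 by blank wells, after 72 hours of two-drug dosing of cells plated in 1536-well plates.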

[2] = system: NCI-H2170 (Squamous Cell Lung Carcinoma)
Procedure, shortened: as §1

NCI-H2452 (Mesothelioma) = system: NCI-H2452 (Mesothelioma)
Procedure, shortened: as §1

[3] = system: MDA-MB-175-VII (Breast Carcinoma)
Procedure, shortened: as §1

[4] = system: SBC-3 (Small Cell Lung Carcinoma)
Procedure, shortened: as §1

[5] = system: TOV-21G (Ovarian Carcinoma)
Procedure, shortened: as §1

[6] = system: NCI-H1944 (Lung Adenocarcinoma)
Procedure, shortened: as §1

DK-MG (Glioblastoma) = system: DK-MG (Glioblastoma)
Procedure, shortened: as §1

[7] = system: OVKATE (Ovarian Carcinoma)
Procedure, shortened: as §1

[8] = system: Daudi (Burkitt's Lymphoma)
Procedure, shortened: as §1

HT-144 (Melanoma) = system: HT-144 (Melanoma)
Procedure, shortened: as §1

[9] = system: NCI-H2009 (Lung Adenocarcinoma)
Procedure, shortened: as §1

[10] = system: BT-474 (Breast Carcinoma)
Procedure, shortened: as §1

[11] = system: GRANTA-519 (B-Cell Non-Hodgkin's Lymphoma)
Procedure, shortened: as §1

[12] = system: JJN-3 (Plasma Cell Myeloma)
Procedure, shortened: as §1

[13] = system: NCI-H1648 (Lung Adenocarcinoma)
Procedure, shortened: as §1

[14] = system: CAL-85-1 (Breast Carcinoma)
Procedure, shortened: as §1

[15] = system: SNU-1 (Gastric Carcinoma)
Procedure, shortened: as §1

[16] = system: SUP-HD1 (Hodgkin's Lymphoma)
Procedure, shortened: as §1

SK-MEL-24 (Melanoma) = system: SK-MEL-24 (Melanoma)
Procedure, shortened: as §1

SMILES	Bliss excess [1]	Bliss excess [2]	Bliss excess (NCI-H2452 (Mesothelioma))	Bliss excess [3]	Bliss excess [4]	Bliss excess [5]	Bliss excess [6]	Bliss excess (DK-MG (Glioblastoma))	Bliss excess [7]	Bliss excess [8]	Bliss excess (HT-144 (Melanoma))	Bliss excess [9]	Bliss excess [10]	Bliss excess [11]	Bliss excess [12]	Bliss excess [13]	Bliss excess [14]	Bliss excess [15]	Bliss excess [16]	Bliss excess (SK-MEL-24 (Melanoma))
C=CCn1c(=O)c2cnc(Nc3ccc(N4CCN(C)CC4)cc3)nc2n1-c1cccc(C(C)(C)O)n1 [AZD1775] + O=C(c1cc(Cc2n[nH]c(=O)c3ccccc23)ccc1F)N1CCN(C(=O)C2CC2)CC1 [Olaparib] (first compound max 1 µM, partner max 10 µM)	0.0113	-0.008	-0.0608	-0.0351	0.0028	-0.0126	-0.043	-0.054	-0.0316	0.0043	-0.0681	0.0075	-0.0611	-0.0679	-0.0591	-0.0216	-0.055	-0.0425	-0.0346	-0.0194
Cc1c2c(nn1C)CSCc1cc(n(C)n1)CSc1cc(c3ccccc3c1)OCCCc1c(C(=O)O)n(C)c3c-2c(Cl)ccc13 [AZD5991] + C=CCn1c(=O)c2cnc(Nc3ccc(N4CCN(C)CC4)cc3)nc2n1-c1cccc(C(C)(C)O)n1 [AZD1775] (first compound max 1 µM, partner max 1 µM)	-0.0295	-0.0274	0.0015	-0.0223	-0.0043	-0.0865	-0.0472	0.0168	-0.0123	-0.0124	0.0284	-0.0051	-0.0298	-0.055	-0.0331	-0.0359	-0.0194	-0.0237	-0.106	0.0416
